From patent US20240091267A1, “PRE-TREATMENT OF MSC WITH PPARB/DELTA AGONIST FOR TREATMENT OF ISCHEMIA-REPERFUSION INJURY” (Universite de Montpellier, priority 2020, published 2024) come the findings set out here.

This assay has as its system LV protein extracts from murine IR hearts. Briefly: Western blot of LV protein extracts from ex vivo IR hearts (cleaved caspase 3, pAKT/AKT, pERK1/2/ERK1/2). Further details: species or system mouse (C57BL/6J). To be noted: for Cleaved caspase 3 (caspase 3 activation): IR hearts reperfused with MSC 2500 cells/mL, pre-treated 24 h or not (GW0742 1 μM). As to the method:
FIG. 9: (A) C57B16 mouse hearts were mounted on a Langendorff system. The ex vivo protocol comprises a 15 minute-period of stabilization, followed by 30 minutes of global ischemia achieved by stopping the flow through the aorta (no-flow). Reperfusion was achieved by restoring the Tyrode perfusion during 60 minutes (IR group). […] At the end of the protocol, hearts were collected, protein extracted for further analysis. (B, C, D) Western blot analysis was performed from LV protein extracts from IR non-treated or MSC-treated murine IR hearts (ex vivo) with or without a pharmacological pre-treatment. Scatter dot blots and mean±SD were plotted for Cleaved-caspase 3 (W=0.0322 for IR, n=10 vs MSC +GW0742, n=10) and for pAKT/AKT (p*=0.0385 for IR, n=8 vs MSC+GW0742, n=8). Data were compared using non parametric Kruskal-Wallis test (Dunn's post hoc test).
On the Langendorff system, the heart was subjected to ischemia-reperfusion (IR) protocol comprising, after a 15 min-stabilization period of Tyrode perfusion, a 30 min-period of no-flow to induce global ischemia). Reperfusion was achieved by restoring the perfusion during 60 min with the Tyrode solution alone (IR control) or with MSC cell in Tyrode solution (MSC) administrated during reperfusion. Ischemic postconditioning was induced at the end of global ischemia by the application of a conditioning stimulus comprising 3 cycles of 1 min-reperfusion/1 min-ischemia, followed by 54 min of reperfusion. For the ex vivo evaluation of MSC-based cell therapy, 80 to 150 mL of MSC (mean value 120 mL) cells prepared in the Tyrode solution at various concentrations (2500, 5000 et 20000 cells/mL) were perfused retrogradely via the aorta and the coronary vessels in isolated hearts during the 60 min-reperfusion phase.
Tissue samples (left ventricle) were rapidly frozen in liquid nitrogen after the end of ex vivo IR protocols. […] Protein concentrations were determined with the bicinchoninic acid (BCA) protein assay kit (Pierce). […]
In general terms: In western blotting, separated proteins are transferred to a membrane and probed.

For `COC(=O)c1sccc1S(=O)(=O)Nc1ccc(Nc2ccccc2)cc1OC` [GSK0660], the “Cleaved caspase 3 (caspase 3 activation)” value is given as “restored full activation of caspase 3”. With `Cc1cc(SCc2sc(-c3ccc(C(F)(F)F)c(F)c3)nc2C)ccc1OCC(=O)O` [GW0742], the “Cleaved caspase 3 (caspase 3 activation)” value is “inhibition of caspase 3 cleavage was further increased”. Further, the “Phosphorylation ratio pAkt/Akt” value (IR hearts, MSC pre-treated with 1 μM prior to administration during reperfusion, vs non-treated IR) is listed as “significantly increased phosphorylation ratio pAkt/Akt”.
